Here are results for two molecules from US20190030053A1, “COMPOSITION FOR INCREASING EXPRESSION OF PGC-1alpha” (BENEBIOSIS CO., LTD., priority 2016, published 2019).

The structures appear in SMILES notation. Entries after “also recorded” stand apart in the source; their conditions may differ.

One experiment concerns PGC-1α and related genes. Description: Gene expression by SL treatment in normal mouse models. The format is in vivo. To be noted: normal C57BL/6 mice, oral 0.1 mg/kg/day, 10 weeks, organs, skeletal muscles, abdominal fat. How it is done: In order to investigate relative gene expression changes by organs compared with before SL (3′-SL & 6′-SL) aministration, 4-week-old C57BL/6 mice were purchased from Dooyeul Biotech (Korea). Water was freely accessible, and a commercially available pellet feed (Dooyeul Biotech, Korea) was given for two weeks. […]
Sialyllactose or deionized water was orally administered daily. […] The dietary intake and body weight change were measured every 5 days. […]
The gene expression changes by administration of the SL (3′-SL & 6′-SL) compositions were quantitatively compared for eight main organs (heart, hippocampus, brain, spinal cord, lung, liver, spleen, and kidney), three skeletal muscles (soleus muscle, quadriceps femoris muscle, and gastrocnemius muscle), and abdominal fat. RNA was extracted by TRIzol agent (Invitrogen). cDNA was synthesized by using RNA, which has been extracted as above and quantified, and a reverse transcription system (Promega, USA). The expression patterns of PGC-1α and related genes were measured by using pre-designed primers and probes (Applied Biosystems; PGC-1α, Mm00447181_m1, GAPDH, and Mm99999915_q1) for the synthesized cDNA and analysis targets (Fndc5, PGC-1α, Erra, UCP1, SOD2, and GPX1). […]

The next experiment concerns telomerase. Description: Telomerase activity (TRAP) in vivo, aorta of arteriosclerosis models (ApoE−/−). Details: species or system mouse. To be noted: ApoE−/− mice, high-fat diet, oral 0.1 mg/kg/day, 6 weeks. The text has this:
In order to investigate the aging-related chronic disease preventing effect through the control of telomerase functions and DNA damage by the treatment with SL (3′-SL & 6′-SL) compositions in arteriosclerosis models, two types of 24-week-old male model mice (PGC-1α^+/+ApoE^−/−) were randomly grouped into three different dietary treatment groups (8 animals per group) below, and the diets were maintained for 6 weeks (a total of 24 animals): • Control group: Arteriosclerosis models fed with a high-fat diet (Rodent Diet with 60 kcal % fat) (8 animals) • 3′-SL administration group: Arteriosclerosis models treated with 3′-sialyllactose (3′-SL, Sigma) (oral administration of 0.1 mg per kg of mouse weight per day) in addition to the high-fat diet group (8 animals) • 6′-SL administration group: Arteriosclerosis models treated with 6′-sialyllactose (6′-SL, Sigma) (oral administration of 0.1 mg per kg of mouse weight per day) in addition to the high-fat diet group (8 animals)
In FIG. 20, the telomerase activity was measured using TRAP protocol (Wright et al., 1995). […] The fluorescence of the thus obtained TRAP product was measured using a fluorescent plate reader to quantify telomerase activity. Relative telomerase activity was normalized by the ratio of native […] to sulforhodamine (internal control standard), expressed as a percentage. […]

`CC(=O)N[C@H]1[C@H]([C@H](O)[C@H](O)CO)O[C@@](O[C@H]2[C@@H](O)[C@@H](CO)O[C@@H](O[C@H]3[C@H](O)[C@@H](O)C(O)O[C@@H]3CO)[C@@H]2O)(C(=O)O)C[C@@H]1O` (stereo partly drawn) [3′-SL, α-NeuNAc-(2→3)-β-D-Gal-(1→4)-D-Glc]: in the experiment with PGC-1α and related genes (0.1 mg/kg/day), the “expression levels of analysis targets (Fndc5, PGC-1α, Erra, UCP1) vs control group” value was “higher than the negative control group; also recorded: less effective than the 6′-SL administration groups”. Besides, the “telomerase activity in aorta sample (in vivo)” value in the experiment with telomerase is “increased telomerase activity”.

Regarding `CC(=O)N[C@H]1[C@H]([C@H](O)[C@H](O)CO)O[C@@](OC[C@H]2O[C@@H](O[C@H]3[C@H](O)[C@@H](O)[C@H](O)O[C@@H]3CO)[C@H](O)[C@@H](O)[C@H]2O)(C(=O)O)C[C@@H]1O` [6′-SL, α-NeuNAc-(2→6)-β-D-Gal-(1→4)-D-Glc], the “expression levels of analysis targets (Fndc5, PGC-1α, Erra, UCP1) vs control group” value in the experiment on PGC-1α and related genes was “higher than the negative control group”. For the same molecule, in the experiment with telomerase, the “telomerase activity in aorta sample (in vivo)” value is listed as “increased telomerase activity”.
